Drawing on ChEMBL document CHEMBL3826971 (Bioorg Med Chem Lett, 2016), this text covers LD50 for 2 compounds.

This data set in a line: Acute toxicity in ip dosed mouse measured after 72 hrs. It counts as organism-based. As to conditions: in vivo.

In general, LD50 refers to the dose at which mortality reaches 50%. Lower therefore signals a more toxic substance. On to `CN(C)C(=O)Oc1cccc([N+](C)(C)C)c1.COS(=O)(=O)[O-]` [NEOSTIGMINE METHYLSULFATE], for which the LD50 at 72 h worked out at 0.51 mg/kg.
Then `CN(C)C(=O)Oc1ccc[n+](C)c1.[Br-]` [PYRIDOSTIGMINE BROMIDE], with 3.3 mg/kg.
